Twelve compounds from patent US7829584B2, “Pyridines and pyridine N-oxides as modulators of thrombin” (Janssen Pharmaceutica NV, priority 2006, dated 2010) can be followed below.

As usually defined, the IC50 is the concentration that inhibits the measured activity by half. A higher IC50 goes with a need for much substance.

This assay addresses T1, Human α-thrombin (Homo sapiens, UniProt P00734).
T1 construct: Human α-thrombin (Enzyme Research Laboratories HT1002a); purchased Enzyme Research Laboratories (South Bend, Ind.) HT1002a
The experiment in a line: In vitro inhibition of purified enzyme, kinetic analysis by chromogenic substrates (Thrombin assay). It counts as biochemical. Conditions: substrate SucAAPR pNA 100 uM, 37° C., pH 7.5, 405 nm, thrombin 1.1 nM. Here is the method: In Vitro Inhibition of Purified Enzyme
Reagents: All buffer salts were obtained from Sigma Chemical Company (St. Louis, Mo.), and were of the highest purity available.
Human α-thrombin, was obtained from Enzyme Research Laboratories (South Bend, Ind.).
Kinetic Analysis by Chromogenic Substrates
Compounds were assessed for their inhibitory activity toward Thrombin by kinetic analysis using para-nitroaniline chromogenic substrates monitored at 405 nm. The assay buffer employed was 50 mM HEPES, pH 7.5, 200 mM NaCl, and fresh 0.05% n-octyl β-d-glucopyranoside. DMSO was present at a final concentration of 4%, derived from the substrate and inhibitory compound stock solutions. […] Reactions were initiated by addition of 10 μL protease, and increase in absorbance due to proteolytic cleavage of substrate was kinetically monitored at 37° C., 405 nm with a Molecular Devices Spectramax 340 plate reader. Initial velocities were determined by analysis of the initial linear portion of the reactions. Plots of vo/vi vs. inhibitor concentration, where vo=velocity without inhibitor, and vi=inhibited velocity, were fit to a linear regression line, and IC50 was determined from the reciprocal of the slope. Ki was calculated from IC50 using the Ki factor specific for the assay as: Ki=IC50×Ki factor, or Ki=IC50×(1/(1+[S]/Km)), where S is the substrate concentration in the assay, and Km is the Michaelis constant for the substrate (Cheng Y and Prusoff W H (1973) Biochem Pharmacol 22: 3099-3108).
The Thrombin assay incorporated substrate SucAAPR pNA (Bachem L-1720, [S]=100 uM final, Km=320 μM, Ki factor=0.76). Substrate in DMSO (10.7 mM) was diluted in assay buffer 100-fold for 100 μM final. Human α-thrombin (Enzyme Research Laboratories HT1002a) was diluted 1500-fold in assay buffer for a final assay concentration of 1.1 nM.

Take `N=C(N)NOCCNC(=O)Cc1nc(NCC(F)(F)c2ccccc2)ccc1Cl` [Cpd 11, N-{2-[(aminoiminomethyl)aminooxy]ethyl}-2-[3-chloro-6-(2,2-difluoro-2-phenyl-ethylamino)-pyridin-2-yl]-acetamide]: the IC50 was roughly 370 nM.

The compound `N#Cc1ccc(NCC(F)(F)c2ccccn2)[n+]([O-])c1CC(=O)NCc1ccc2ccnc(N)c2c1` [Cpd 5, 3-cyano-6-(2,2-difluoro-2-pyridin-2-yl-ethylamino)-2-(1-Amino-isoquinolin-7-ylmethyl)aminocarbonylmethyl-pyridine 1-oxide] yielded an IC50 of roughly 42 nM.

Compound `N#Cc1ccc(NCC(F)(F)c2ccc(F)cc2)[n+]([O-])c1CC(=O)NCc1cnccc1-n1cncn1` [Cpd 8, 3-cyano-6-(2,2-difluoro-2-(4-fluoro-phenyl)-ethylamino)-2-(4-[1,2,4]triazol-1-yl-pyridin-3-ylmethyl)aminocarbonylmethyl-pyridine 1-oxide] returned an IC50 of roughly 3.4 nM.

Regarding `N#Cc1ccc(NCC(F)(F)c2ccccn2)[n+]([O-])c1CC(=O)NCc1cncc(Cl)c1` [Cpd 12, 3-cyano-6-(2,2-difluoro-2-pyridin-2-yl-ethylamino)-2-(5-chloro-pyridin-3-ylmethyl)aminocarbonylmethyl-pyridine 1-oxide], the IC50 was roughly 66 nM.

Turning to `N#Cc1ccc(NCC(F)(F)c2ccccn2)[n+]([O-])c1CC(=O)NCc1ccc2c(N)noc2c1` [Cpd 4, 3-cyano-6-(2,2-difluoro-2-pyridin-2-yl-ethylamino)-2-(3-amino-benzo[d]isoxazol-6-ylmethyl)aminocarbonylmethyl-pyridine 1-oxide], the IC50 was roughly 6.1 nM.

`N#Cc1ccc(NCC(F)(F)c2ccccn2)[n+]([O-])c1CC(=O)NCc1ccc2onc(N)c2c1` [Cpd 3, 3-cyano-6-(2,2-difluoro-2-pyridin-2-yl-ethylamino)-2-(3-Amino-benzo[d]isoxazol-5-ylmethyl)aminocarbonylmethyl-pyridine 1-oxide] displayed a half-maximal inhibitory concentration (IC50) of roughly 280 nM.

Consider `N#Cc1ccc(NCC(F)(F)c2ccccc2)[n+]([O-])c1CC(=O)NCCONC(=N)N` [Cpd 1, 3-cyano-6-(2,2-difluoro-2-phenyl-ethylamino)-2-{2-[(aminoiminomethyl)aminooxy]ethyl}aminocarbonylmethyl-pyridine 1-oxide], for which the half-inhibitory concentration (IC50) is roughly 0.13 nM.

`N#Cc1ccc(NCC(F)(F)c2ccccn2)[n+]([O-])c1CC(=O)NCc1cccnc1-n1cncn1` [Cpd 10, 3-cyano-6-(2,2-difluoro-2-pyridin-2-yl-ethylamino)-2-(2-[1,2,4]triazol-1-yl-pyridin-3-ylmethyl)aminocarbonylmethyl-pyridine 1-oxide] gave an IC50 of roughly 170 nM.

`N=C(N)NOCCNC(=O)Cc1c(Cl)ccc(NCC(F)(F)c2ccccc2)[n+]1[O-]` [Cpd 2, 3-chloro-6-(2,2-difluoro-2-phenyl-ethylamino)-2-{2-[(aminoiminomethyl)aminooxy]ethyl}aminocarbonylmethyl-pyridine 1-oxide] showed an IC50 of roughly 0.54 nM.

`N#Cc1ccc(NCC(F)(F)c2ccccn2)[n+]([O-])c1CC(=O)NCc1c(F)cccc1-n1cncn1` [Cpd 7, 3-cyano-6-(2,2-difluoro-2-pyridin-2-yl-ethylamino)-2-(2-[1,2,4]triazol-1-yl-6-fluoro-phenylmethyl)aminocarbonylmethyl-pyridine 1-oxide] yielded an IC50 of roughly 0.44 nM.

Regarding `N#Cc1ccc(NCC(F)(F)c2ccccn2)[n+]([O-])c1CC(=O)NCc1cnccc1-n1cncn1` [Cpd 6, 3-cyano-6-(2,2-difluoro-2-pyridin-2-yl-ethylamino)-2-(4-[1,2,4]triazol-1-yl-pyridin-3-ylmethyl)aminocarbonylmethyl-pyridine 1-oxide], the IC50 was roughly 3.3 nM.

For the compound `N#Cc1ccc(NCC(F)(F)c2ncccn2)[n+]([O-])c1CC(=O)NCc1cnccc1-n1cncn1` [Cpd 9, 3-cyano-6-(2,2-difluoro-2-pyrimidin-2-yl-ethylamino)-2-(4-[1,2,4]triazol-1-yl-pyridin-3-ylmethyl)aminocarbonylmethyl-pyridine 1-oxide], the 50% inhibitory concentration (IC50) was roughly 200 nM.
